In patent US7293941B2, “Methods for cementing using compositions containing salts” (Halliburton Energy Services, Inc., priority 2005, dated 2007):

Columns and labels:
[1] = test system: skeletonema costatum; test: Toxicity to algae, ISO 10253 (OSPAR HOCNF); type: in vivo; conditions: amount required to kill or incapacitate half the test population per amount of water
Excerpt: (§1) According to still other embodiments described herein, a disulfonate salt of 2,4-pentanedione is provided. According to one such embodiment, the salt comprises 2,4-pentanedione-1,5-sodium disulfonate. According to another such embodiment, a disulfonate salt of 2,4-pentanedione has an environmentally acceptable toxicity. As used herein, the term “environmentally acceptable toxicity” means that, when tested according to procedures that are the same as or equivalent to those set forth by the OSPAR Guidelines for Completing the Harmonised Offshore Chemical Notification Format (HOCNF) (References number: 2003-1) that were in effect on Dec. 31, 2004, the salt is determined to have a toxicity of greater than about 10,000 mg/L for an algae (skeletonema costatum), a crustacean (acartia tonsa), a fish (scopthalmus) and a sediment reworker (corophium volutator). […]
(§2) In this Example 3, the toxicity results for the skeletonema costatum were determined according to ISO (International Organization for Standardization) 10253, the protocol for which is known to those of ordinary skill in the art, and is also the protocol required under the above-referenced HOCNF Guidelines. The toxicity results for the acartia tonsa were determined according to ISO 14669, the protocol for which is known to those of ordinary skill in the art. […]

[2] = test system: acartia tonsa; test: Toxicity to crustacean, ISO 14669; type: in vivo; conditions: amount required to kill or incapacitate half the test population per amount of water
Excerpt: as §1, §2

[3] = test system: scopthalmus; test: Toxicity to fish, OSPAR Protocols Part B; type: in vivo; conditions: amount required to kill or incapacitate half the test population per amount of water
Excerpt: as §1, §2

[4] = test system: corophium volutator; test: Toxicity to sediment reworker, OSPAR Protocols Part B; type: in vivo; conditions: amount required to kill or incapacitate half the test population per amount of water
Excerpt: as §1, §2

[5] = Environmentally / nationally acceptable toxicity assessment; conditions: concluded from result > about 10,000 mg/L for the species tested
Excerpt: According to still other embodiments described herein, a disulfonate salt of 2,4-pentanedione is provided. According to one such embodiment, the salt comprises 2,4-pentanedione-1,5-sodium disulfonate. According to another such embodiment, a disulfonate salt of 2,4-pentanedione has an environmentally acceptable toxicity. As used herein, the term “environmentally acceptable toxicity” means that, when tested according to procedures that are the same as or equivalent to those set forth by the OSPAR Guidelines for Completing the Harmonised Offshore Chemical Notification Format (HOCNF) (References number: 2003-1) that were in effect on Dec. 31, 2004, the salt is determined to have a toxicity of greater than about 10,000 mg/L for an algae (skeletonema costatum), a crustacean (acartia tonsa), a fish (scopthalmus) and a sediment reworker (corophium volutator).
According to yet another embodiment, a disulfonate salt of 2,4-pentanedione has a “nationally acceptable toxicity.” As used herein, the term “nationally acceptable toxicity” means that when tested according to procedures that are the same as or equivalent to those in effect in a country of interest on Dec. 31, 2004, the salt is determined to have a toxicity acceptable for use in the areas subject to such country's procedures. […]

[6] = Solubility of salt versus free acid on methanol rinse; type: physicochemical; conditions: compared to 2,4-pentanedione-1,5-disulfonic free acid
Excerpt: The neutralized product was then rinsed several times with methanol to remove by-product acids, or any salts formed therefrom, while leaving the 2,4-pentanedione-1,5-sodium disulfonate primarily undissolved. […] The rinsed product was dried in a vacuum oven and filtered through a 300 mesh screen to afford a flowing pale orange/red powder. The resulting powder was 2,4-pentanedione-1,5-sodium disulfonate.

**Q.** Which results are given for O=C(CC(=O)CS(=O)(=O)[O-])CS(=O)(=O)[O-].[Na+].[Na+] [2,4-pentanedione-1,5-sodium disulfonate]?
**A.** toxicity [1]: greater than 10,000 mg/L; toxicity [2]: greater than 10,000 mg/L; toxicity [3]: greater than 10,000 mg/L; toxicity [4]: greater than 10,000 mg/L; toxicity acceptability [5]: low toxicity; solubility compared to the free acid [6]: significantly less soluble
